Reference: US8802597B2, “Herbicidal pyrimidines” (E I du Pont de Nemours and Company, priority 2003, dated 2014)

Tests used:
Test in all cases: Test D pre/postemergence
Format in all cases: in vivo
[1] = tested on: pigweed (Amaranthus retroflexus); conditions: scale 0 to 100 (100 = complete control)
Excerpt: (§1) Seeds of plant species selected from catchweed bedstraw (galium; Galium aparine), common chickweed (Stellaria media), kochia (Kochia scoparia), lambsquarters (Chenopodium album), pigweed (Amaranthus retroflexus), Russian thistle (Salsola kali), wild buckwheat (Polygonum convolvulus), wild mustard (Sinapis arvensis), winter barley (Hordeum vulgare), and wheat (Triticum aestivum) were planted and treated preemergence with test chemicals formulated in a non-phytotoxic solvent mixture which included a surfactant.
(§2) At the same time, plants selected from these crop and weed species were treated with postemergence applications of some of the test chemicals formulated in the same manner. Plants ranged in height from 2 to 18 cm (1- to 4-leaf stage) for postemergence treatments. Treated plants and controls were maintained in a controlled growth environment for 15 to 25 days after which time all species were compared to controls and visually evaluated. Plant response ratings, summarized in Table D, are based on a scale of 0 to 100 where 0 is no effect and 100 is complete control. A dash (-) response means no test result.

[2] = tested on: Russian thistle (Salsola kali); conditions: scale 0 to 100 (100 = complete control)
Excerpt: as §1, §2

[3] = tested on: wheat (Triticum aestivum); conditions: scale 0 to 100 (100 = complete control)
Excerpt: as §1, §2

[4] = tested on: catchweed bedstraw (galium; Galium aparine); conditions: scale 0 to 100 (100 = complete control)
Excerpt: as §1, §2

[5] = tested on: lambsquarters (Chenopodium album); conditions: scale 0 to 100 (100 = complete control)
Excerpt: as §1, §2

kochia (Kochia scoparia) = conditions: scale 0 to 100 (100 = complete control)
Excerpt: as §1, §2

[6] = tested on: wild buckwheat (Polygonum convolvulus); conditions: scale 0 to 100 (100 = complete control)
Excerpt: as §1, §2

[7] = tested on: wild mustard (Sinapis arvensis); conditions: scale 0 to 100 (100 = complete control)
Excerpt: as §1, §2

[8] = tested on: common chickweed (Stellaria media); conditions: Preemergence, scale 0 to 100 (100 = complete control)
Excerpt: as §1, §2

COC(=O)c1nc(-c2ccc(Cl)cc2)nc(N)c1Cl [Compound 58, methyl 6-amino-5-chloro-2-(4-chlorophenyl)-4-pyrimidinecarboxylate]
Plant response rating, Pigweed ([1]; Postemergence, 62 g ai/ha): 80
Plant response rating, Pigweed ([1]; Postemergence, 125 g ai/ha): 100
Plant response rating, Pigweed ([1]; Postemergence, 250 g ai/ha): 100
Plant response rating, Pigweed ([1]; Postemergence, 500 g ai/ha): 100
Plant response rating, Pigweed ([1]; Preemergence, 62 g ai/ha): 70
Plant response rating, Pigweed ([1]; Preemergence, 125 g ai/ha): 100
Plant response rating, Pigweed ([1]; Preemergence, 250 g ai/ha): 100
Plant response rating, Pigweed ([1]; Preemergence, 500 g ai/ha): 100
Plant response rating, Russian Thistle ([2]; Postemergence, 62 g ai/ha): 70
Plant response rating, Russian Thistle ([2]; Postemergence, 125 g ai/ha): 70
Plant response rating, Russian Thistle ([2]; Postemergence, 250 g ai/ha): 70
Plant response rating, Russian Thistle ([2]; Postemergence, 500 g ai/ha): 80
Plant response rating, Russian Thistle ([2]; Preemergence, 62 g ai/ha): 40
Plant response rating, Russian Thistle ([2]; Preemergence, 125 g ai/ha): 65
Plant response rating, Russian Thistle ([2]; Preemergence, 250 g ai/ha): 70
Plant response rating, Russian Thistle ([2]; Preemergence, 500 g ai/ha): 85
Plant response rating, Wheat ([3]; Postemergence, 62 g ai/ha): 55
Plant response rating, Wheat ([3]; Postemergence, 125 g ai/ha): 60
Plant response rating, Wheat ([3]; Postemergence, 250 g ai/ha): 70
Plant response rating, Wheat ([3]; Postemergence, 500 g ai/ha): 85
Plant response rating, Wheat ([3]; Preemergence, 62 g ai/ha): 25
Plant response rating, Wheat ([3]; Preemergence, 125 g ai/ha): 50
Plant response rating, Wheat ([3]; Preemergence, 250 g ai/ha): 60
Plant response rating, Wheat ([3]; Preemergence, 500 g ai/ha): 70
Plant response rating, Galium ([4]; Postemergence, 62 g ai/ha): 100
Plant response rating, Galium ([4]; Postemergence, 125 g ai/ha): 100
Plant response rating, Galium ([4]; Postemergence, 250 g ai/ha): 100
Plant response rating, Galium ([4]; Postemergence, 500 g ai/ha): 100
Plant response rating, Galium ([4]; Preemergence, 62 g ai/ha): 100
Plant response rating, Galium ([4]; Preemergence, 125 g ai/ha): 100
Plant response rating, Galium ([4]; Preemergence, 250 g ai/ha): 100
Plant response rating, Galium ([4]; Preemergence, 500 g ai/ha): 100
Plant response rating, Lambsquarters ([5]; Postemergence, 62 g ai/ha): 80
Plant response rating, Lambsquarters ([5]; Postemergence, 125 g ai/ha): 85
Plant response rating, Lambsquarters ([5]; Postemergence, 250 g ai/ha): 100
Plant response rating, Lambsquarters ([5]; Postemergence, 500 g ai/ha): 100
Plant response rating, Lambsquarters ([5]; Preemergence, 62 g ai/ha): 60
Plant response rating, Lambsquarters ([5]; Preemergence, 125 g ai/ha): 100
Plant response rating, Lambsquarters ([5]; Preemergence, 250 g ai/ha): 100
Plant response rating, Lambsquarters ([5]; Preemergence, 500 g ai/ha): 100
Plant response rating, Kochia (kochia (Kochia scoparia); Postemergence, 62 g ai/ha): 70
Plant response rating, Kochia (kochia (Kochia scoparia); Postemergence, 125 g ai/ha): 100
Plant response rating, Kochia (kochia (Kochia scoparia); Postemergence, 250 g ai/ha): 100
Plant response rating, Kochia (kochia (Kochia scoparia); Postemergence, 500 g ai/ha): 100
Plant response rating, Kochia (kochia (Kochia scoparia); Preemergence, 62 g ai/ha): 35
Plant response rating, Kochia (kochia (Kochia scoparia); Preemergence, 125 g ai/ha): 95
Plant response rating, Kochia (kochia (Kochia scoparia); Preemergence, 250 g ai/ha): 100
Plant response rating, Kochia (kochia (Kochia scoparia); Preemergence, 500 g ai/ha): 100
Plant response rating, Buckwheat, Wild ([6]; Postemergence, 62 g ai/ha): 65
Plant response rating, Buckwheat, Wild ([6]; Postemergence, 125 g ai/ha): 90
Plant response rating, Buckwheat, Wild ([6]; Postemergence, 250 g ai/ha): 100
Plant response rating, Buckwheat, Wild ([6]; Postemergence, 500 g ai/ha): 100
Plant response rating, Buckwheat, Wild ([6]; Preemergence, 62 g ai/ha): 40
Plant response rating, Buckwheat, Wild ([6]; Preemergence, 125 g ai/ha): 80
Plant response rating, Buckwheat, Wild ([6]; Preemergence, 250 g ai/ha): 100
Plant response rating, Buckwheat, Wild ([6]; Preemergence, 500 g ai/ha): 100
Plant response rating, Mustard, Wild ([7]; Postemergence, 62 g ai/ha): 100
Plant response rating, Mustard, Wild ([7]; Postemergence, 125 g ai/ha): 100
Plant response rating, Mustard, Wild ([7]; Postemergence, 250 g ai/ha): 100
Plant response rating, Mustard, Wild ([7]; Postemergence, 500 g ai/ha): 100
Plant response rating, Mustard, Wild ([7]; Preemergence, 62 g ai/ha): 65
Plant response rating, Mustard, Wild ([7]; Preemergence, 125 g ai/ha): 100
Plant response rating, Mustard, Wild ([7]; Preemergence, 250 g ai/ha): 100
Plant response rating, Mustard, Wild ([7]; Preemergence, 500 g ai/ha): 100
Plant response rating, Chickweed ([8]; 62 g ai/ha): 60
Plant response rating, Chickweed ([8]; 250 g ai/ha): 75
Plant response rating, Chickweed ([8]; 500 g ai/ha): 100
